From patent US8618051B2, “Vesiculins” (Auckland Uniservices Limited, priority 2005, dated 2013) come the findings set out here.

This experiment relates to rat soleus muscle strips. Put plainly: rat soleus muscle assay: D-[14C(U)]-glucose incorporation into muscle glycogen. To be noted: isolated soleus muscle strips of fasted male Wistar rats; peptide 0.71 nM to 237 nM; 120 minutes at 30° C.; read-out: EC50, stimulating the uptake and incorporation of radioactive glucose into muscle glycogen. How it is done:
The soleus muscle was dissected from anaesthetized fasted male Wistar rats (200 g±20 g). Each muscle was then teased longitudinally into 3 equal strips with a final radius of approximately 1.5 mm. An average of six muscle strips were transferred into flasks, containing 10 ml of carbogen-saturated nDMEM and peptide (vesiculin, insulin-II, or commercial human IGF-II (GroPep)) at concentrations ranging from 0.71 nM to 237 nM, before the addition of 10 μl of (0.5 μCi) D-[^14C(U)]-Glucose. Flasks were then incubated in a shaking water bath for 120 minutes at 30° C. under a stream of carbogen.
After incubation, the muscle strips were removed and blotted dry before being frozen instantly in liquid nitrogen and freeze-dried for 24 hours. The dried weight of muscle strip was recorded before the muscle strips were solubilised in 250 μl of 60% KOH (70° C. water bath for 45 minutes). 750 μl of ice-cold ethanol was then added and the tubes were left overnight at −20° C. to facilitate glycogen precipitation. Tubes were then centrifuged at 9000 g for 15 minutes at 0° C., the supernatant aspirated and the glycogen pellet resuspended in 750 μl of ice-cold ethanol. […] The tubes were mixed thoroughly, and then counted using a Beckman LS 3801 β-counter. The amount of D-[^14C(U)]-Glucose incorporation into muscle glycogen was calculated by dividing the cpm values by the dry muscle weight. […]

Consider “human IGF-II: commercial human IGF-II (GroPep), used as a further positive control”, for which the EC50 stood at 48 nM.

As to “mouse insulin-II: insulin-II co-purified from βTC6-F7 granules as a preparative control”, the EC50 came out at 27 nM.
